In assay [1] the target is T1, glucocorticoid receptor (Homo sapiens, UniProt P04150).
T1 construct: a partially purified full length glucocorticoid receptor
T1 sequence (P04150 1-777): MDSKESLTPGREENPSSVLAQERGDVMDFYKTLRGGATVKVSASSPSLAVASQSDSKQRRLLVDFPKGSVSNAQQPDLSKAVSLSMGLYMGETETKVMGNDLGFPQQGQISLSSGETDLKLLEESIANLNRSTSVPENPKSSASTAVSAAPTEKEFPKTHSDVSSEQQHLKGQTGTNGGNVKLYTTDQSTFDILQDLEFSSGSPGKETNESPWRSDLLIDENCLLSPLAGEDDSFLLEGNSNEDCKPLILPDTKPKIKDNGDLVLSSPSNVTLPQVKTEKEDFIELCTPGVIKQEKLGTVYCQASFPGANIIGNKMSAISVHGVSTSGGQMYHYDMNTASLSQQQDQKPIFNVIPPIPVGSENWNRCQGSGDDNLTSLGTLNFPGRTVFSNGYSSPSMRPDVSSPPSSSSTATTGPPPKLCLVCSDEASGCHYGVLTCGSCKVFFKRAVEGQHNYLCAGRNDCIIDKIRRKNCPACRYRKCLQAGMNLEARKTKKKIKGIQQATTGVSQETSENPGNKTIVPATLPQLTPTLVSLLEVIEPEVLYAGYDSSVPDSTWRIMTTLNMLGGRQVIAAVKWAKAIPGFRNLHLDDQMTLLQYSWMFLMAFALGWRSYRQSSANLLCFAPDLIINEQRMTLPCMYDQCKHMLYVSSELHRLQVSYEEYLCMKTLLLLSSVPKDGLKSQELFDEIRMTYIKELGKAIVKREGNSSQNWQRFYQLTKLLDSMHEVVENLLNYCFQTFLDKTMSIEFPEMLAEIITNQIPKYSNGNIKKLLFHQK
The assay can be described thus: Glucocorticoid receptor binding assay (fluorescence polarisation). The following applies: competition with Alexa 555 fluorescently-labelled dexamethasone derivative, full length glucocorticoid receptor; read-out: glucocorticoid binding pIC50 (converted). The method, then:
Compounds were solvated and diluted in DMSO, and transferred directly into assay plates. Fluorescent dexamethasone and a partially purified full length glucocorticoid receptor were added to the plates, together with buffer components to stabilise the GR protein and incubated at room temperature for 2 hrs in the dark. Binding of each compound was assessed by analysing the displacement of fluorescent ligand by measuring the decrease in fluorescence polarisation signal from the mixture. Dose response curves were constructed from which pIC50 values were estimated.
A general note: In fluorescence polarisation assays a small probe gives low polarisation when free and higher when bound to something large.

The test system of assay [2] is NFκB. The assay can be described thus: NFκB agonist assay in A549 SPAP cells.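 On average maximum asymptote in the NFkB assay: maximum inhibition of the TNFα-induced NFκB-driven signal.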 Format: cell-based. Particulars: Homo sapiens; for Emax: A549, A549 SPAP cells, >85% = full agonist, ≧20% = partial or full agonist, read-out: average maximum asymptote in the NFkB assay; for IC50: A549 SPAP cells, TNFα 3.2 ng/ml, read-out: pIC50 for the NFkB assay (converted). From the text: Human lung carcinoma A549 cell line (ECACC No. 86012804) has been stably transfected in house with a plasmid containing an ELAM promoter sequence that has a NFκB response element within it. Stimulation of the cell line with TNFα results in intracellular signal transduction and ultimately translocation of NFκB into the nucleus. This activates the inserted DNA sequence resulting in transcription of the integrated SPAP gene, which is quantified using a colorimetric assay. […] The stably transfected cell line was grown as a monolayer in DMEM supplemented with FCS-HI (10%), Non-essential amino acids (1%), L-Glutamine (2 mM), Pen/Strep (1%) and Geneticin (50 mg/ml).
A 70% confluent T225 flask of A549 SPAP cells was harvested by centrifugation for 5 min at 200 g, resuspended in assay buffer (DMEM supplemented with 10% FCS 2×HI, 2 mM L-Glutamine, 1% Pen/Strep and Non essential amino acids) and diluted to 0.16×10^6/ml. 60 μl of cell solution was dispensed to each well of clear Nunc 384-well plates, containing compound at the required concentration. Plates were incubated for 1 h at 37° C., 95% humidity, 5% CO2 before 10 μl of TNFα was added at final concentration of 3.2 ng/ml and then returned to the cell incubator for 15 h. Plates were equilibrated to room temperature for 1 h prior to the addition of 25 μl of pNPP buffer (1M Diethanolamine pH 9.8, 0.5 mM MgCl2, 0.28M NaCl, 2 mg/ml pNPP) to each well of assay plates. The plates were covered to protect the reagents from light, and then incubated at room temperature for approximately 1 hour before reading them on an Ascent using a 405 nm single filter. Dose response curves were constructed from which pIC50 values were estimated.

Assay [3] deals with MMTV promoter. The assay is described as follows: MMTV agonist assay in A549 MMTV cells. Format: cell-based. The following applies: Homo sapiens, A549, 6 h, >85% = full agonist, >20% and <85% = partial or efficacy selective agonist, read-out: average maximum asymptote in the MMTV agonist assay. From the text: Human lung carcinoma A549 cell line (ECACC No. 86012804) has been stably transfected in house with a plasmid containing a renilla luciferase reporter with an MMTV promoter. Stimulation of the cell line with GR agonists results in intracellular signal transduction and ultimately translocation of GR into the nucleus. This activates the inserted DNA sequence resulting in transcription of the integrated luciferase gene, which is quantified using a light emission. The stably transfected cell line was grown as a monolayer in DMEM supplemented with FCS-HI (10%), Non-essential amino acids (1%), L-Glutamine (2 mM), Pen/Strep (1%) and Geneticin (50 mg/ml).
A 90% confluent T175 flask of A549 MMTV cells was harvested by centrifugation for 5 min at 200 g, resuspended in assay buffer (DMEM supplemented with 10% FCS 2×HI, 2 mM Glutamax, Non essential amino acids and 25 mM HEPES) and diluted to 0.1×10^6/ml. 70 μl of cell solution was dispensed to each well of white Nunc 384-well plates, containing compound at the required concentration. Plates were incubated for 6 h at 37° C., 95% humidity, 5% CO2. Plates were equilibrated to room temperature for 1 h prior to the addition of 10 μl of Renilla substrate to each well of assay plates. The plates were covered to protect the reagents from light, and then incubated at room temperature for approximately 15 mins before reading them on a Viewlux. Dose response curves were constructed from which pEC50 and maximum asymptote values were estimated.

Assay [4] addresses T2, progesterone receptor (Homo sapiens, UniProt P06401).
T2 construct: expressed in transfected cells; host or cells: CV-1 cells transduced with PRb-BacMam and MMTV-BacMam
T2 sequence (P06401 1-933): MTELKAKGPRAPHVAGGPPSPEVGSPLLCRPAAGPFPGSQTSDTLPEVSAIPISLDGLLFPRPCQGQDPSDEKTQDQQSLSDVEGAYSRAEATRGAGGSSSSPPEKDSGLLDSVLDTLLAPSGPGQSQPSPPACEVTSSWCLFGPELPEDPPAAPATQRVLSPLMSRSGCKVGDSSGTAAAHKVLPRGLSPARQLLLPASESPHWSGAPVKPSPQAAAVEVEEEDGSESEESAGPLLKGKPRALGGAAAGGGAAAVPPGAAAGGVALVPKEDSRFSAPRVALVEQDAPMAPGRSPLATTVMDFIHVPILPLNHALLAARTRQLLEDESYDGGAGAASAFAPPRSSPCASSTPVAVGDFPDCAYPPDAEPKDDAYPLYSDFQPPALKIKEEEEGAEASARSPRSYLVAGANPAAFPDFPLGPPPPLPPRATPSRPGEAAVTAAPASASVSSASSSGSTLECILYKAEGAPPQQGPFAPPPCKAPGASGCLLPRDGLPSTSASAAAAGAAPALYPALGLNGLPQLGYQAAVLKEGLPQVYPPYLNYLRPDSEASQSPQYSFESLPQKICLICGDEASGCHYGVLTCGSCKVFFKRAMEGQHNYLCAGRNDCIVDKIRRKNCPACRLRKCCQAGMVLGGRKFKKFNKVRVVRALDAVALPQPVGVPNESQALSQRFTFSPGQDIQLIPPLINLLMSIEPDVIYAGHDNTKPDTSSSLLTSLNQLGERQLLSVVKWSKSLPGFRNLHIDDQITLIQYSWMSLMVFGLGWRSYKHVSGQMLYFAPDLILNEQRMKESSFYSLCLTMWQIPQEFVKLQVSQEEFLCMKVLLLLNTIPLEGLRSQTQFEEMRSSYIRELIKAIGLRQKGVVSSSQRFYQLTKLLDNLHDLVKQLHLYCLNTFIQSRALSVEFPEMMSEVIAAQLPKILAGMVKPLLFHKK
The assay is described as follows: Assay for progesterone receptor activity (CV-1 cells, PRb-BacMam/MMTV-BacMam). Format: cell-based. The following applies: CV-1 cells transduced with PRb-BacMam and MMTV-BacMam; read-out: pEC50 progesterone receptor activity (converted). The method, then: A T225 flask of CV-1 cells at a density of 80% confluency was washed with PBS, detached from the flask using 0.25% trypsin and counted using a Sysmex KX-21N. Cells were diluted in DMEM containing 10% Hyclone, 2 mM L-Glutamate and 1% Pen/Strep at 140 cells/μl and transduced with 10% PRb-BacMam and 10% MMTV-BacMam. […] of suspension cells were dispensed to each well of white Nunc 384-well plates, containing compounds at the required concentration. After 24 h 10 μl of Steadylite were added to each well of the plates. Plates were incubated in the dark for 10 min before reading them on a Viewlux reader. Dose response curves were constructed from which pEC50 values were estimated.

Bounds are passed on as bounds.

In the case of `Nc1c(C(=O)NCC(O)(CN(CCF)C(=O)c2c(F)cccc2Cl)C(F)(F)F)cnn1-c1ccc(F)cc1` (racemic) [Example 29 (racemic), 5-amino-N-(2-{[[(2-chloro-6-fluorophenyl)carbonyl](2-fluoroethyl)amino]methyl}-3,3,3-trifluoro-2-hydroxypropyl)-1-(4-fluorophenyl)-1H-pyrazole-4-carboxamide], the figures for the IC50 in assay [1] and in assay [2] were at most 316 nM and below 1000 nM, respectively. Also, the Emax in assay [2] and in assay [3] was above 85% each time.

Turning to `CCN(CC(O)(CNC(=O)c1cnn(-c2ccccc2Cl)c1N)C(F)(F)F)C(=O)c1c(F)cccc1F` (racemic) [Example 40 (racemic), 5-amino-1-(2-chlorophenyl)-N-(2-{[[(2,6-difluorophenyl)carbonyl](ethyl)amino]methyl}-3,3,3-trifluoro-2-hydroxypropyl)-1H-pyrazole-4-carboxamide], the IC50 is at most 316 nM in assay [1] and below 1000 nM in assay [2]. The Emax in assay [2] and in assay [3] was above 85% each time.

Consider `Nc1c(C(=O)NCC(O)(CNC(=O)c2c(Cl)cccc2C(F)(F)F)C(F)(F)F)cnn1-c1ccc(F)cc1` (racemic) [Example 44 (racemic), 5-Amino-N-{2-[({[2-chloro-6-(trifluoromethyl)phenyl]carbonyl}amino)methyl]-3,3,3-trifluoro-2-hydroxypropyl}-1-(4-fluorophenyl)-1H-pyrazole-4-carboxamide], for which the figures for the IC50 in assay [1] and in assay [2] were at most 316 nM and below 1000 nM, respectively. The Emax in assay [2] is at least 20%; in assay [3], 20 to 85%.

For `Nc1c(C(=O)NCC(O)(CNC(=O)c2c(F)cccc2Cl)C(F)(F)F)cnn1-c1ccc(F)cc1` (single isomer, unassigned) [Example 7 Enantiomer 2, 5-Amino-N-[2-({[(2-chloro-6-fluorophenyl)carbonyl]amino}methyl)-3,3,3-trifluoro-2-hydroxypropyl]-1-(4-fluorophenyl)-1H-pyrazole-4-carboxamide], the Emax was at least 20% in assay [2] and 20 to 85% in assay [3].

Turning to `Nc1c(C(=O)NCC(O)(CNC(=O)c2c(C(F)(F)F)cccc2C(F)(F)F)C(F)(F)F)cnn1-c1ccc(F)cc1` (single isomer, unassigned) [Example 15 Enantiomer 1, 5-amino-N-{2-[({[2,6-bis(trifluoromethyl)phenyl]carbonyl}amino)methyl]-3,3,3-trifluoro-2-hydroxypropyl}-1-(4-fluorophenyl)-1H-pyrazole-4-carboxamide], the IC50 in assay [1] was at most 316 nM. Moreover, the values for the Emax in assay [2] and in assay [3] were at least 20% and 20 to 85%, respectively. Further, the EC50 in assay [4] was above 1000 nM.

Take `Nc1c(C(=O)NCC(O)(CNC(=O)c2c(F)cccc2C(F)(F)F)C(F)(F)F)cnn1-c1ccc(F)cc1` (single isomer, unassigned) [Example 19 Enantiomer 1, 5-amino-1-(4-fluorophenyl)-N-{3,3,3-trifluoro-2-[({[2-fluoro-6-(trifluoromethyl)phenyl]carbonyl}amino)methyl]-2-hydroxypropyl}-1H-pyrazole-4-carboxamide]: the values for the IC50 in assay [1] and in assay [2] were at most 316 nM and below 1000 nM, respectively. Moreover, the values for the Emax in assay [2] and in assay [3] were at least 20% and 20 to 85%, respectively.

Source of the values: patent US8247377B2, “Non-steroidal glucocorticoid inhibitors and their use in treating inflammation, allergy and auto-immune conditions” (Glaxo Group Limited, priority 2006, dated 2012).
